Assay results from PubChem BioAssay AID1918946 (Molecular Pharmacology Branch, DTP, NCI, 2023).

System: 885512-296-R-J2-PDC complex spheroid viability
Assay: Anticancer human tumor 885512-296-R-J2-PDC patient-derived breast carcinoma cell line growth inhibition
Conditions: for IC50: curve of first compound; for viability, T/C: stronger effect = lower value; active = viability on the fitted dose curve at most 10% of control; inactive = the rest
Outline: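 Complex spheroids of tumor cells with HUVEC and human MSCs, exposed to iadademstat combined with other agents. Each agent tested in half-log steps from near clinical Cmax (else 10 microM top), DMSO ≤0.25%.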

[1] = second compound 0.1 µM, first compound 0.000316 µM
[2] = second compound 0.1 µM, first compound 0.001 µM
[3] = second compound 0.1 µM, first compound 0.00316 µM
[4] = second compound 0.1 µM, first compound 0.01 µM
[5] = second compound 0.1 µM, first compound 0.0316 µM
[6] = second compound 0.1 µM, first compound 0.1 µM
[7] = second compound 0.316 µM, first compound 0.000316 µM
[8] = second compound 0.316 µM, first compound 0.001 µM
[9] = second compound 0.316 µM, first compound 0.00316 µM
[10] = second compound 0.316 µM, first compound 0.01 µM
[11] = second compound 0.316 µM, first compound 0.0316 µM
[12] = second compound 0.316 µM, first compound 0.1 µM
[13] = second compound 1 µM, first compound 0.000316 µM
[14] = second compound 1 µM, first compound 0.001 µM
[15] = second compound 1 µM, first compound 0.00316 µM
[16] = second compound 1 µM, first compound 0.01 µM
[17] = second compound 1 µM, first compound 0.0316 µM
[18] = second compound 1 µM, first compound 0.1 µM
[19] = second compound 3.16 µM, first compound 0.000316 µM
[20] = second compound 3.16 µM, first compound 0.001 µM
[21] = second compound 3.16 µM, first compound 0.00316 µM
[22] = second compound 3.16 µM, first compound 0.01 µM
[23] = second compound 3.16 µM, first compound 0.0316 µM
[24] = second compound 3.16 µM, first compound 0.1 µM
[25] = second compound 10 µM, first compound 0.000316 µM
[26] = second compound 10 µM, first compound 0.001 µM
[27] = second compound 10 µM, first compound 0.00316 µM
[28] = second compound 10 µM, first compound 0.01 µM
[29] = second compound 10 µM, first compound 0.0316 µM
[30] = second compound 10 µM, first compound 0.1 µM
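Also: spheroids exposed to agents for 7 days before viability read.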

CC(C)CC(NC(=O)C(Cc1ccccc1)NC(=O)c1cnccn1)B(O)O (stereo not given) + NC1CC1c1ccc(-c2cccc(O)c2)cc1
< 0.316 nM: IC50 (second compound 0.1 µM) | IC50 (second compound 0.316 µM) | IC50 (second compound 1 µM) | IC50 (second compound 3.16 µM) | IC50 (second compound 10 µM)
active: viability, T/C [2] 1.21% | viability, T/C [3] 7.48% | viability, T/C [4] 0.02% | viability, T/C [5] 0.02% | viability, T/C [6] 0.09% | viability, T/C [8] 0.69% | viability, T/C [9] 0.05% | viability, T/C [10] 0.01% | viability, T/C [11] 0.01% | viability, T/C [12] 0.08% | viability, T/C [14] 0.65% | viability, T/C [15] 0.02% | viability, T/C [16] 0.01% | viability, T/C [17] 0.01% | viability, T/C [18] 0.09% | viability, T/C [20] 0.58% | viability, T/C [21] 0.16% | viability, T/C [22] 0.01% | viability, T/C [23] 0.02% | viability, T/C [24] 0.1% | viability, T/C [26] 0.27% | viability, T/C [27] 0.11% | viability, T/C [28] 0.12% | viability, T/C [29] 0.14% | viability, T/C [30] 0.14%
inactive: viability, T/C [1] 18.7% | viability, T/C [7] 19% | viability, T/C [13] 18.5% | viability, T/C [19] 15.5% | viability, T/C [25] 11.2%

CC(C)CC(NC(=O)CNC(=O)c1cc(Cl)ccc1Cl)B1OC(=O)CC(CC(=O)O)(C(=O)O)O1 (stereo not given) + NC1CC1c1ccc(-c2cccc(O)c2)cc1
3.35 nM: IC50 (second compound 10 µM)
active: viability, T/C [4] 10.1% | viability, T/C [5] 1.77% | viability, T/C [6] 0.48% | viability, T/C [11] 2.04% | viability, T/C [12] 0.45% | viability, T/C [17] 1.61% | viability, T/C [18] 0.42% | viability, T/C [23] 1.75% | viability, T/C [24] 0.31% | viability, T/C [28] 5.61% | viability, T/C [29] 1.05% | viability, T/C [30] 0.22%
4.23 nM: IC50 (second compound 3.16 µM)
4.92 nM: IC50 (second compound 0.1 µM)
inactive: viability, T/C [1] 125% | viability, T/C [2] 126% | viability, T/C [3] 75% | viability, T/C [7] 130% | viability, T/C [8] 113% | viability, T/C [9] 79.6% | viability, T/C [10] 10.3% | viability, T/C [13] 132% | viability, T/C [14] 116% | viability, T/C [15] 78.6% | viability, T/C [16] 9.38% | viability, T/C [19] 121% | viability, T/C [20] 103% | viability, T/C [21] 65.7% | viability, T/C [22] 8.61% | viability, T/C [25] 82.8% | viability, T/C [26] 87.5% | viability, T/C [27] 52%
5.08 nM: IC50 (second compound 1 µM)
5.16 nM: IC50 (second compound 0.316 µM)

COc1cc(Nc2ncc3c(n2)-c2ccc(Cl)cc2C(c2c(F)cccc2OC)=NC3)ccc1C(=O)O + NC1CC1c1ccc(-c2cccc(O)c2)cc1
inactive: viability, T/C [3] 32% | viability, T/C [4] 34% | viability, T/C [5] 17.9% | viability, T/C [6] 23.5% | viability, T/C (second compound 0.1 µM, first compound 0.316 µM) 21.7% | viability, T/C (second compound 0.1 µM, first compound 1 µM) 20.1% | viability, T/C [9] 30.3% | viability, T/C [10] 35.4% | viability, T/C [11] 20.9% | viability, T/C [12] 21.7% | viability, T/C (second compound 0.316 µM, first compound 0.316 µM) 25.4% | viability, T/C (second compound 0.316 µM, first compound 1 µM) 19.1% | viability, T/C [15] 33.5% | viability, T/C [16] 35.8% | viability, T/C [17] 20.4% | viability, T/C [18] 21.6% | viability, T/C (second compound 1 µM, first compound 0.316 µM) 22.1% | viability, T/C (second compound 1 µM, first compound 1 µM) 19.6% | viability, T/C [21] 27% | viability, T/C [22] 29.8% | viability, T/C [23] 19.8% | viability, T/C [24] 13.2% | viability, T/C (second compound 3.16 µM, first compound 0.316 µM) 19.4% | viability, T/C (second compound 3.16 µM, first compound 1 µM) 15.4% | viability, T/C [27] 15% | viability, T/C [28] 20.2% | viability, T/C [29] 14.2% | viability, T/C [30] 8.64% | viability, T/C (second compound 10 µM, first compound 0.316 µM) 11.8% | viability, T/C (second compound 10 µM, first compound 1 µM) 12.7%
< 3.16 nM: IC50 (second compound 0.1 µM) | IC50 (second compound 0.316 µM) | IC50 (second compound 1 µM) | IC50 (second compound 3.16 µM) | IC50 (second compound 10 µM)

O=C(C=Cc1cccc(S(=O)(=O)Nc2ccccc2)c1)NO + NC1CC1c1ccc(-c2cccc(O)c2)cc1
71.5 nM: IC50 (second compound 1 µM)
41.9 nM: IC50 (second compound 0.316 µM)
39.1 nM: IC50 (second compound 3.16 µM)
> 3000 nM: IC50 (second compound 0.1 µM)
19.5 nM: IC50 (second compound 10 µM)
inactive: viability, T/C (second compound 0.1 µM, first compound 0.00949 µM) 104% | viability, T/C (second compound 0.1 µM, first compound 0.03 µM) 66.5% | viability, T/C (second compound 0.1 µM, first compound 0.0949 µM) 26.4% | viability, T/C (second compound 0.1 µM, first compound 0.3 µM) 15.9% | viability, T/C (second compound 0.1 µM, first compound 0.949 µM) 2.01% | viability, T/C (second compound 0.1 µM, first compound 3 µM) 136% | viability, T/C (second compound 0.316 µM, first compound 0.00949 µM) 106% | viability, T/C (second compound 0.316 µM, first compound 0.03 µM) 61.2% | viability, T/C (second compound 0.316 µM, first compound 0.0949 µM) 23.3% | viability, T/C (second compound 0.316 µM, first compound 0.3 µM) 12% | viability, T/C (second compound 0.316 µM, first compound 0.949 µM) 2.58% | viability, T/C (second compound 0.316 µM, first compound 3 µM) 116% | viability, T/C (second compound 1 µM, first compound 0.00949 µM) 96.3% | viability, T/C (second compound 1 µM, first compound 0.03 µM) 73.6% | viability, T/C (second compound 1 µM, first compound 0.0949 µM) 26.6% | viability, T/C (second compound 1 µM, first compound 0.3 µM) 13.9% | viability, T/C (second compound 1 µM, first compound 0.949 µM) 1.94% | viability, T/C (second compound 1 µM, first compound 3 µM) 127% | viability, T/C (second compound 3.16 µM, first compound 0.00949 µM) 92.1% | viability, T/C (second compound 3.16 µM, first compound 0.03 µM) 53.6% | viability, T/C (second compound 3.16 µM, first compound 0.0949 µM) 26.4% | viability, T/C (second compound 3.16 µM, first compound 0.3 µM) 14.4% | viability, T/C (second compound 3.16 µM, first compound 0.949 µM) 1.95% | viability, T/C (second compound 3.16 µM, first compound 3 µM) 109% | viability, T/C (second compound 10 µM, first compound 0.00949 µM) 62.8% | viability, T/C (second compound 10 µM, first compound 0.03 µM) 42.4% | viability, T/C (second compound 10 µM, first compound 0.0949 µM) 16.9% | viability, T/C (second compound 10 µM, first compound 0.3 µM) 8.77% | viability, T/C (second compound 10 µM, first compound 0.949 µM) 0.61% | viability, T/C (second compound 10 µM, first compound 3 µM) 82.6%
